From BindingDB's records for doi:10.1073/pnas.250483897 (University of Berne, 2000) come the findings set out here.

pIC50: −log10 of the molar value. Where “and” joins values, the source holds several entries; their conditions need not be identical. Identical values can stand only once. Starred links: 1 amine or outer side, 2 acyl side, 3 side chain; linkers in the order of their positions; H or OH if unused. Positions of bridges follow the written chain, without caps; N, C: chain ends. Non-standard residues stand in square brackets, D forms with d. Residues, ends and D or L forms follow the SMILES beside them. *: point of attachment. pNA = O=[N+]([O-])c1ccc(N*)cc1; Nle = CCCC[CH](N)C(=O)O; CO = O=C([*:1])[*:2]

Assay [1] concerns the target Somatostatin receptor type 4 (Homo sapiens, UniProt P31391). As to conditions: IC50 (nM).
Assay [2] has as its target Somatostatin receptor type 3 (Homo sapiens, UniProt P32745).
Assay [3] addresses Somatostatin receptor type 5 (Homo sapiens, UniProt P35346).

In general, IC50 refers to the point on the concentration scale where inhibition reaches its midpoint. Broadly, the pIC50 is the negative decadic logarithm of the IC50, by convention in mol/L.

Sequence of Somatostatin receptor type 5 (P35346 whole entry): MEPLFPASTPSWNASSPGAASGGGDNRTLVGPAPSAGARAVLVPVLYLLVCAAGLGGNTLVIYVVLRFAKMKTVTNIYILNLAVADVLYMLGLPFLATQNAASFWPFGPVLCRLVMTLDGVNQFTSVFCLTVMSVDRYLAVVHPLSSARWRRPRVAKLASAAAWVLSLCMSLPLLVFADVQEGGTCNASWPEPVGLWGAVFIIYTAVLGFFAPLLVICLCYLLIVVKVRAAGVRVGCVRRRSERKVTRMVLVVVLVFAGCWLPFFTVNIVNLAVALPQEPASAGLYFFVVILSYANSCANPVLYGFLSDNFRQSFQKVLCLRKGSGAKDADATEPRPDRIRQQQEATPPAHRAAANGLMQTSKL
Sequence of Somatostatin receptor type 4 (P31391 whole entry): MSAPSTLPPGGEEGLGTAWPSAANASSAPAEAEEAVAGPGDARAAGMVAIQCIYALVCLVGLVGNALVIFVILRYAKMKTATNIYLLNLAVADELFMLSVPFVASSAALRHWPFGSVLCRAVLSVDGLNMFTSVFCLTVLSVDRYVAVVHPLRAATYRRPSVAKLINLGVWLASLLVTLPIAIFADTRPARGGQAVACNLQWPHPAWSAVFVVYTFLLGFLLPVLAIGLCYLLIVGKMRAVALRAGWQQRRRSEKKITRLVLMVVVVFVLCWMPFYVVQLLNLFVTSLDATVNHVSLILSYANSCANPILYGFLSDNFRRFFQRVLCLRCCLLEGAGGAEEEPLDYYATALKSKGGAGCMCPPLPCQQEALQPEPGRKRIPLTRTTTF
Sequence of Somatostatin receptor type 3 (P32745 whole entry): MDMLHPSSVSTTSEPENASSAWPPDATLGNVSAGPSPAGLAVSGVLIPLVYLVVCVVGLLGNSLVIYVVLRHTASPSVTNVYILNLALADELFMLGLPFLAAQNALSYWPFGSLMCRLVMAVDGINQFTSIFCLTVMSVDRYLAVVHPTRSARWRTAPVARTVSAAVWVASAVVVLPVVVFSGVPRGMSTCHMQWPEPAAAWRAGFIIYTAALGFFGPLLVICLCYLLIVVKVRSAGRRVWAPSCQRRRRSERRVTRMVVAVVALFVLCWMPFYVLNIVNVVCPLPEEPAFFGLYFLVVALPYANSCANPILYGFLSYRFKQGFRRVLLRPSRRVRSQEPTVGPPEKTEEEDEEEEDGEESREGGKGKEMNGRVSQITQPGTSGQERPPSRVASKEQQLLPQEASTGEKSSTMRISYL

Regarding `C[C@@H](O)[C@@H]1NC(=O)[C@H](CCCCN)NC(=O)[C@@H](NC(=O)c2ccc3ccccc3c2)NC(=O)[C@H](Cc2ccccc2)NC(=O)[C@H](Cc2ccccc2)NC(=O)[C@@H](N)CSSC[C@@H](C(=O)O)NC(=O)[C@H](Cc2ccccc2)NC1=O` [des-AA 1,2,4,5,12,13[D-2Nal8]-SS (ODN-8)], inhibition in assay [1] was half-maximal at 165 nM (IC50).
As to `CCCCC(NC(=O)NC(Cc1ccccc1)C(=O)Nc1ccc([N+](=O)[O-])cc1)C(=O)NC(CCCCN)C(=O)OC` (stereo unspecified) [CAS_5311373] ({pNA-Phe-CO}-[Nle]-Lys-OMe; configuration not given here), the pIC50 in assay [2] is 6.90; in assay [3], less than 5.00. The compound also gave an IC50 in assay [1] greater than 10000 nM.
In the same order, the values of `C[C@@H](O)[C@@H]1NC(=O)[C@H](CCCCN)NC(=O)[C@@H](N(C)C(=O)c2ccc3ccccc3c2)NC(=O)[C@H](Cc2ccccc2)NC(=O)[C@H](Cc2ccccc2)NC(=O)[C@@H](N)CSSC[C@@H](C(=O)O)NC(=O)[C@H](Cc2ccccc2)NC1=O` [des-AA 1,2,4,5,12,13[DAgl8(Me,2-naphthoyl)]-SS] are 7.15, less than 5.00 and greater than 10000 nM.
For `CSCC[C@H](NC(=O)[C@H](CCCN=C(N)N)NC(=O)[C@@H](N)CC(=O)O)C(=O)N1CCC[C@H]1C(=O)N[C@H]1CSSC[C@@H](C(=O)N[C@@H](CCCCN)C(=O)O)NC(=O)[C@H](CO)NC(=O)[C@H](CO)NC(=O)[C@H](Cc2ccccc2)NC(=O)[C@H]([C@@H](C)O)NC(=O)[C@H](CCCCN)NC(=O)[C@H](Cc2c[nH]c3ccccc23)NC(=O)[C@H](Cc2ccccc2)NC(=O)[C@H](Cc2ccccc2)NC(=O)[C@H](CC(N)=O)NC(=O)[C@H](CCCN=C(N)N)NC1=O` [Cortistatin] the same measures were 8.17, 7.89 and 2.5 nM.
With `C[C@@H](O)[C@@H]1NC(=O)[C@H](CCCCN)NC(=O)[C@@H](N(C)C(=O)c2ccc3ccccc3c2)NC(=O)[C@H](Cc2ccccc2)NC(=O)[C@H](Cc2ccccc2)NC(=O)[C@H](N)CSSC[C@@H](C(=O)O)NC(=O)[C@H](Cc2ccccc2)NC1=O` [des-AA 1,2,4,5,12,13[D-Cys3, D-Agl8(Me,2-naphthoyl)]-SS], in assay [2], the pIC50 was 6.94. In assay [1], the IC50 was greater than 10000 nM.
In the case of `C[C@@H](O)[C@@H]1NC(=O)[C@H](CCCCN)NC(=O)[C@@H](N(C)C(=O)c2ccc3ccccc3c2)NC(=O)[C@H](Cc2ccc(O)cc2)NC(=O)[C@H](Cc2ccccc2)NC(=O)[C@H](NC(N)=O)CSSC[C@@H](C(=O)O)NC(=O)[C@H](Cc2ccccc2)NC1=O` [Carbamoyl-des-AA 1,2,4,5,12,13[D-Cys3,Tyr7, D-Agl8(Me,2-naphthoyl)]-SS(sst3-ODN-8)], the values for the pIC50 in assay [2] and in assay [3] were 8.17 and less than 5.00, respectively. In assay [1], this compound returned an IC50 greater than 10000 nM.
On to `C[C@@H](O)[C@@H]1NC(=O)[C@H](CCCCN)NC(=O)[C@@H](Cc2c[nH]c3ccccc23)NC(=O)[C@H](Cc2ccccc2)NC(=O)[C@H](Cc2ccccc2)NC(=O)[C@@H](N)CSSC[C@@H](C(=O)O)NC(=O)[C@H](Cc2ccccc2)NC1=O` [H-c(Cys3-Phe6-Phe7-DTrp8-Lys9-Thr10-Phe11-Cys14)-OH] (H-CFF[dW]KTFC-OH; disulfide 1-8), for which the figures for the pIC50 in assay [2] and in assay [3] were 7.89 and 7.35, respectively. Besides, in assay [1], it took 1.3 nM to reach half-maximal inhibition (IC50).
Turning to `C[C@@H](O)[C@@H]1NC(=O)[C@H](CCCCN)NC(=O)[C@@H](N(C)C(=O)c2ccc3ccccc3c2)NC(=O)[C@H](Cc2ccc(O)cc2)NC(=O)[C@H](Cc2ccccc2)NC(=O)[C@H](N)CSSC[C@@H](C(=O)O)NC(=O)[C@H](Cc2ccccc2)NC1=O` [des-AA 1,2,4,5,12,13[D-Cys3,Tyr7, D-Agl8(Me,2-naphthoyl)]-SS], the pIC50 in assay [2] is 7.41; in assay [3], less than 5.00. Also, the IC50 in assay [1] is > 10000 nM and 1000 nM.
